Data reported in publication PMC11213865, “Mechanisms contributing to inhibition of retinal ganglion cell death by cell permeable peptain-1 under glaucomatous stress” (Cell Death Discovery, 2024).
No end group written: not given here.

Assays:
[1] = test system: Human retinal endothelial cells; test: Cell penetration and retention, western blot with anti-P1 monoclonal antibody; assay type: in vitro ADME; conditions: 16 h; for intracellular concentration (level of P1 in cells, densitometry relative to β-actin): cell uptake, 100 µM peptide, serum-free DMEM/F12 (low glucose), cell lysate, western blot with anti-P1 monoclonal antibody, mean ± SEM, n = 3
Experimental: Fig. 1 Conjugation with CPP increases the cell permeability of P1. A Human retinal endothelial cells were treated with vehicle (CONT), P1 or CPP-P1 (100 µM). Following incubation for 16 h, the levels of P1 in cells were detected by western blotting using an anti-P1 monoclonal antibody. Densitometric analysis was performed relative to β-actin levels (n = 3). Data represented as mean ± SEM, One-way ANOVA followed by Tukey’s multiple comparisons test, ***p < 0.001, ns-not significant. The entire western blot image is shown in Supplementary Figure 1. B Human retinal explants comparing the difference in neuroprotective efficacy of P1 with and without the CPP. C Representative images, RBPMS, Scale bar = 100 µm.
Human retinal endothelial cells were incubated with vehicle, P1, or CPP-P1 (100 µM) in serum-free DMEM/F12 (low glucose) medium for 16 h. Cells were treated with 1X RIPA buffer containing protease inhibitor cocktail and cell lysates were prepared. Western blot was performed using an anti-P1 monoclonal antibody with β-actin as the loading control (n = 3).

RGC = conditions: accumulates within RGC somas in a time-dependent manner; cited from earlier work

cell permeability of CPP-P1 relative to P1 ([1]; 100 µM, human retinal endothelial cells, western blot) | intracellular concentration (level of P1 in cells, densitometry relative to β-actin) [1] | Sequence | RGC permeability (RGC)
approximately seven | 1.41 ± 0.17 | VPTLKDRFSVNLDVKHFSPEELKVK [CPP-P1] | –
– | 0.23 ± 0.01 | DRFSVNLDVKHFSPEELKVK [P1] | RGC-permeable
